Assay results reported in the NIST ThermoML archive (doi:10.1016/j.jct.2016.04.014).

Conditions: Liquid, Vibrating tube method

CCO [ethanol]
Conditions	mass density [kg/m3]
288.15 K, 100 kPa	793.7
288.15 K, 1000 kPa	794.4
288.15 K, 5000 kPa	797.6
288.15 K, 10000 kPa	801.5
288.15 K, 15000 kPa	805.3
288.15 K, 20000 kPa	808.9
288.15 K, 25000 kPa	812.4
288.15 K, 30000 kPa	815.7
288.15 K, 35000 kPa	819
288.15 K, 40000 kPa	822.1
288.15 K, 45000 kPa	825.1
288.15 K, 50000 kPa	828
288.15 K, 55000 kPa	830.7
288.15 K, 60000 kPa	833.3
293.15 K, 100 kPa	789.4
293.15 K, 1000 kPa	790.2
293.15 K, 5000 kPa	793.5
293.15 K, 10000 kPa	797.4
293.15 K, 15000 kPa	801.3
293.15 K, 20000 kPa	805
293.15 K, 25000 kPa	808.6
293.15 K, 30000 kPa	812
293.15 K, 35000 kPa	815.3
293.15 K, 40000 kPa	818.5
293.15 K, 45000 kPa	821.5
293.15 K, 50000 kPa	824.5
293.15 K, 55000 kPa	827.2
293.15 K, 60000 kPa	829.9
298.15 K, 100 kPa	785.2
298.15 K, 1000 kPa	785.9
298.15 K, 5000 kPa	789.3
298.15 K, 10000 kPa	793.4
298.15 K, 15000 kPa	797.3
298.15 K, 20000 kPa	801.1
298.15 K, 25000 kPa	804.8
298.15 K, 30000 kPa	808.3
298.15 K, 35000 kPa	811.7
298.15 K, 40000 kPa	814.9
298.15 K, 45000 kPa	818
298.15 K, 50000 kPa	821
298.15 K, 55000 kPa	823.8
298.15 K, 60000 kPa	826.5
303.15 K, 100 kPa	780.9
303.15 K, 101 kPa	780.83
303.15 K, 1000 kPa	781.6
303.15 K, 5000 kPa	785.1
303.15 K, 10000 kPa	789.3
303.15 K, 15000 kPa	793.3
303.15 K, 20000 kPa	797.2
303.15 K, 25000 kPa	801
303.15 K, 30000 kPa	804.6
303.15 K, 35000 kPa	808
303.15 K, 40000 kPa	811.3
303.15 K, 45000 kPa	814.5
303.15 K, 50000 kPa	817.5
303.15 K, 55000 kPa	820.3
303.15 K, 60000 kPa	823.1
308.15 K, 100 kPa	776.5
308.15 K, 1000 kPa	777.3
308.15 K, 5000 kPa	780.9
308.15 K, 10000 kPa	785.2
308.15 K, 15000 kPa	789.3
308.15 K, 20000 kPa	793.3
308.15 K, 25000 kPa	797.1
308.15 K, 30000 kPa	800.8
308.15 K, 35000 kPa	804.3
308.15 K, 40000 kPa	807.7
308.15 K, 45000 kPa	810.9
308.15 K, 50000 kPa	814
308.15 K, 55000 kPa	816.9
308.15 K, 60000 kPa	819.6
313.15 K, 100 kPa	772.1
313.15 K, 101 kPa	772.1
313.15 K, 1000 kPa	773
313.15 K, 5000 kPa	776.6
313.15 K, 10000 kPa	781
313.15 K, 15000 kPa	785.3
313.15 K, 20000 kPa	789.4
313.15 K, 25000 kPa	793.3
313.15 K, 30000 kPa	797
313.15 K, 35000 kPa	800.6
313.15 K, 40000 kPa	804.1
313.15 K, 45000 kPa	807.4
313.15 K, 50000 kPa	810.5
313.15 K, 55000 kPa	813.4
313.15 K, 60000 kPa	816.2
318.15 K, 100 kPa	767.7
318.15 K, 1000 kPa	768.5
318.15 K, 5000 kPa	772.3
318.15 K, 10000 kPa	776.8
318.15 K, 15000 kPa	781.2
318.15 K, 20000 kPa	785.4
318.15 K, 25000 kPa	789.4
318.15 K, 30000 kPa	793.2
318.15 K, 35000 kPa	796.9
318.15 K, 40000 kPa	800.4
318.15 K, 45000 kPa	803.8
318.15 K, 50000 kPa	806.9
318.15 K, 55000 kPa	809.9
318.15 K, 60000 kPa	812.8
323.15 K, 100 kPa	763.2
323.15 K, 101 kPa	763.22
323.15 K, 1000 kPa	764.1
323.15 K, 5000 kPa	768
323.15 K, 10000 kPa	772.6
323.15 K, 15000 kPa	777.1
323.15 K, 20000 kPa	781.4
323.15 K, 25000 kPa	785.5
323.15 K, 30000 kPa	789.4
323.15 K, 35000 kPa	793.2
323.15 K, 40000 kPa	796.8
323.15 K, 45000 kPa	800.2
323.15 K, 50000 kPa	803.4
323.15 K, 55000 kPa	806.5
323.15 K, 60000 kPa	809.3
328.15 K, 100 kPa	758.7
328.15 K, 1000 kPa	759.6
328.15 K, 5000 kPa	763.6
328.15 K, 10000 kPa	768.3
328.15 K, 15000 kPa	772.9
328.15 K, 20000 kPa	777.3
328.15 K, 25000 kPa	781.6
328.15 K, 30000 kPa	785.6
328.15 K, 35000 kPa	789.5
328.15 K, 40000 kPa	793.1
328.15 K, 45000 kPa	796.6
328.15 K, 50000 kPa	799.9
328.15 K, 55000 kPa	803
328.15 K, 60000 kPa	805.9
333.15 K, 100 kPa	754.1
333.15 K, 1000 kPa	755
333.15 K, 5000 kPa	759.1
333.15 K, 10000 kPa	764
333.15 K, 15000 kPa	768.8
333.15 K, 20000 kPa	773.3
333.15 K, 25000 kPa	777.6
333.15 K, 30000 kPa	781.7
333.15 K, 35000 kPa	785.7
333.15 K, 40000 kPa	789.4
333.15 K, 45000 kPa	792.9
333.15 K, 50000 kPa	796.3
333.15 K, 55000 kPa	799.4
333.15 K, 60000 kPa	802.4
343.15 K, 100 kPa	744.6
343.15 K, 1000 kPa	745.6
343.15 K, 5000 kPa	750
343.15 K, 10000 kPa	755.2
343.15 K, 15000 kPa	760.2
343.15 K, 20000 kPa	765
343.15 K, 25000 kPa	769.6
343.15 K, 30000 kPa	773.9
343.15 K, 35000 kPa	778
343.15 K, 40000 kPa	781.9
343.15 K, 45000 kPa	785.6
343.15 K, 50000 kPa	789.1
343.15 K, 55000 kPa	792.3
343.15 K, 60000 kPa	795.3
353.15 K, 1000 kPa	736
353.15 K, 5000 kPa	740.6
353.15 K, 10000 kPa	746.2
353.15 K, 15000 kPa	751.5
353.15 K, 20000 kPa	756.5
353.15 K, 25000 kPa	761.3
353.15 K, 30000 kPa	765.9
353.15 K, 35000 kPa	770.2
353.15 K, 40000 kPa	774.3
353.15 K, 45000 kPa	778.1
353.15 K, 50000 kPa	781.7
353.15 K, 55000 kPa	785.1
353.15 K, 60000 kPa	788.2
363.15 K, 1000 kPa	725.9
363.15 K, 5000 kPa	730.8
363.15 K, 10000 kPa	736.7
363.15 K, 15000 kPa	742.4
363.15 K, 20000 kPa	747.7
363.15 K, 25000 kPa	752.8
363.15 K, 30000 kPa	757.7
363.15 K, 35000 kPa	762.2
363.15 K, 40000 kPa	766.5
363.15 K, 45000 kPa	770.5
363.15 K, 50000 kPa	774.3
363.15 K, 55000 kPa	777.7
363.15 K, 60000 kPa	780.9
373.15 K, 1000 kPa	715.3
373.15 K, 5000 kPa	720.6
373.15 K, 10000 kPa	727
373.15 K, 15000 kPa	733
373.15 K, 20000 kPa	738.7
373.15 K, 25000 kPa	744.2
373.15 K, 30000 kPa	749.3
373.15 K, 35000 kPa	754.1
373.15 K, 40000 kPa	758.6
373.15 K, 45000 kPa	762.8
373.15 K, 50000 kPa	766.7
373.15 K, 55000 kPa	770.2
373.15 K, 60000 kPa	773.5
393.15 K, 1000 kPa	692.2
393.15 K, 5000 kPa	698.4
393.15 K, 10000 kPa	705.8
393.15 K, 15000 kPa	712.8
393.15 K, 20000 kPa	719.4
393.15 K, 25000 kPa	725.6
393.15 K, 30000 kPa	731.4
393.15 K, 35000 kPa	736.8
393.15 K, 40000 kPa	741.8
393.15 K, 45000 kPa	746.4
393.15 K, 50000 kPa	750.7
393.15 K, 55000 kPa	754.5
393.15 K, 60000 kPa	757.9
413.15 K, 1000 kPa	666.3
413.15 K, 5000 kPa	673.6
413.15 K, 10000 kPa	682.3
413.15 K, 15000 kPa	690.5
413.15 K, 20000 kPa	698.1
413.15 K, 25000 kPa	705.3
413.15 K, 30000 kPa	712
413.15 K, 35000 kPa	718.2
413.15 K, 40000 kPa	723.8
413.15 K, 45000 kPa	729
413.15 K, 50000 kPa	733.7
413.15 K, 55000 kPa	737.9
413.15 K, 60000 kPa	741.5
